Measured values published in patent US11246854B2, “Ozonides for treating or preventing virus infections” (THE JOHNS HOPKINS UNIVERSITY, priority 2017, dated 2022).
Entries after “also recorded” stand apart in the source; their conditions may differ.

How the values were obtained:
[1] = test system: pp28 luciferase-recombinant Towne HCMV; experiment: pp28-luciferase Towne HCMV replication assay in HFFs; format: cell-based, human cytomegalovirus; conditions: for EC50: Human betaherpesvirus 5; for Selectivity index (SI): CC50/EC50
Experimental: (§1) Six ozonizes have been tested for inhibition of HCMV replication and toxicity in human foreskin fibroblasts (Table 1, FIG. 1). The pp28 luciferase-recombinant Towne was used to measure HCMV replication, and an MTT assay—for cell viability. […] (FIG. 1).
(§2) The pp28-luciferase Towne CMV strain was constructed as previously described (31). The recombinant virus expresses luciferase under the control of UL99 (pp28) late promoter 48-72 h post infection (hpi). […] Luciferase activity highly correlates with plaque reduction assay. The Towne CMV (ATCC VR-977) and TB40 strains (ATCC VR-1578) were used for plaque reduction, DNA replication, and cell cycle assays.
HFFs passage 12-16 (ATCC, CRL-2088) were grown in Dulbecco's Modified Eagle Medium (DMEM) containing 10% fetal bovine serum (FBS) (Gibco, Carlsbad, Calif.) in a 5% CO2 incubator at 37° C. and used for infection with pp28-luciferase Towne CMV. HCT116 (Human Colorectal Carcinoma) (ATCC, CCL-247) cells were maintained in DMEM containing 10% fetal bovine serum.
(§3) To determine the effect of cell density/cycling on the anti-HCMV activity of ozonides, HFFs were plated at 0.5×10^6, 1×10^6, 2×10^6 or 3×10^6 cells/96 well-plate 24 h prior to infection. Infection was carried out at multiplicity of infection of 1 PFU/cell (MOI=1). Following 90 minute adsorption, media containing virus was removed and replaced by DMEM with 4% FBS (Gibco) containing anti-viral compounds. Infected treated HFFs were collected at 72 hpi and pp28 activity was quantified by a Luciferase Assay Kit (Promega, Madison, Wis.) on GloMaxH-Multi+ Detection System (Promega) according to manufacturer's instructions.

MTT cell viability assay = format: cell-based; conditions: human foreskin fibroblasts
Experimental: Six ozonizes have been tested for inhibition of HCMV replication and toxicity in human foreskin fibroblasts (Table 1, FIG. 1). The pp28 luciferase-recombinant Towne was used to measure HCMV replication, and an MTT assay—for cell viability.
Cells were seeded in 96-well plates, treated with various concentrations of ozonides and incubated at 37° C. for 3 days. Cell viability was determined by an MTT-based colorimetric assay (Sigma-Aldrich), and performed at the same time points as the antiviral assay.

HCMV TB40 strain = experiment: Plaque reduction assay in HFFs; format: cell-based, human cytomegalovirus; conditions: Human betaherpesvirus 5, read-out: EC50 in plaque reduction assay
Experimental: as §1, §2
A plaque reduction assay was performed in HFFs. One day prior to infection, HFFs were seeded at 3×10^6 cells/24-well plate. The Towne CMV strain was diluted in DMEM to a desired titer which gave approximately 50 plaques/well and added to each well in quadruplicates. Plates were incubated for 90 minutes with shaking every 10 min; thereafter compounds were added and replenished every 3 days. After a 10-day incubation, cells were stained with crystal violet and plaques were counted at 40× magnification.

GCV-resistant CMV strain = experiment: Inhibition of GCV-resistant HCMV; format: cell-based, human cytomegalovirus; conditions: FIG. 3
Text: FIG. 3A-3D illustrates activity of OZ418 against a GCV-resistant CMV strain. A. Dose response. B. Luciferase. C. HCMV proteins IE1/2, UL44, and pp65 detection. D. Plaque reduction assay.
A GCV-resistant strain was inhibited by OZ418 (FIG. 3).

HCMV entry = HCMV entry assay; format: cell-based; conditions: FIG. 4A
Experimental: To determine the time during HCMV replication that OZ418 was active an entry assay was performed (FIG. 4A).

pp28-luciferase HCMV = experiment: Add-on and removal experiments; format: cell-based, human cytomegalovirus; conditions: luciferase at 72 hpi
Experimental: HFFs were infected with the pp28-luciferase HCMV as described above. At 0, 6, 12, 24, 36 and 48 hpi, the media were replaced by the media containing OZ418 or GCV. For time-of-removal studies, media containing the compounds were removed at 0, 6, 12, 24, 36 and 48 hpi, cells were then washed three times with PBS, and drug-free medium was added. The cells were incubated at 37° C., and luciferase assays were carried out at 72 hpi.

[2] = test system: pp28-luciferase Towne CMV strain; experiment: Drug combination with GCV (Bliss model); format: cell-based, human cytomegalovirus; conditions: FIGS. 4D and E
Experimental: Drug combinations were performed as previously reported (33). Briefly, 2×10^6 HFFs were seeded in a 96-well plate and infected with the pp28-luciferase Towne CMV strain at MOI=1. First, a dose response curve was generated for each drug individually to determine its EC50. […] Luciferase activity of the combination and each drug individually was quantified at 72 hpi. The Bliss model was used to calculate the effect of each drug combination on pp28-luciferase activity. In this model, drug combination represents the product of two probabilistically independent events as described in the following equation (23):
[formula] Where D is the drug concentration, m is the slope, and EC50 is the effective concentration resulting in 50% virus inhibition. The combined effect of two inhibitors (FU, fractional unaffected) is computed as the product of individual effects of the two inhibitors, FU1 and FU2. If the ratio of observed fold inhibition divided by the expected fold inhibition is greater than 1, the compounds are synergistic. If the ratio is less than 1, the combination is considered antagonistic, and if it equals to 1 the combination is additive.

MCMV = experiment: Inhibition of mouse CMV replication in BALB/c mice; format: in vivo
Experimental: For infection experiments BALB/c mice, 4-6 week old, were purchased from Harlan Laboratories (Indianapolis, Ind.). The Animal Care and Use Committee of Johns Hopkins University approved the experimental procedures. After 2-3 days of adaptation to the housing environment, mice were randomly divided into several groups as follows: control, infected, infected+OZ418 1 mg/kg, 3 mg/kg or 10 mg/kg orally once daily, infected+AS 10 mg/kg orally twice daily, infected+GCV 10 mg/kg intraperitoneally twice daily. Mice were infected intraperitoneally with 10^6 PFU/mice (0.1 mL in […] saline) and all treatments were started at 24 hpi. Control mice received 0.1 ml of saline intraperitoneally. Control and infected mice received equivalent volumes of saline. Mice were sacrificed at day 14 after infection. Salivary glands, liver and spleen were harvested and stored at −80° C. Organs were homogenized in DMEM with 4% FBS at a final concentration of 100 mg/mL. Two million MEFs were seeded into 24-well plates. From each sample, 5% of the salivary gland homogenate or 10% of the liver homogenate was used for infection of MEFs in triplicates. Plaques were counted after three days.

non-infected HFFs [3] = experiment: Cell cycle progression by flow cytometry, non-infected HFFs; format: cell-based, human; conditions: non-infected cells, 30 μM, 24 h and 72 h
Experimental: (§4) To identify the cell cycle stage affected by OZ418, non-infected HFFs were serum starved for 72 h and then released in DMEM with 0% FBS (control for G0 arrest), 10% FBS (control for cell cycle progression), or 10% FBS plus OZ418 (30 μM), AS (30 μM), or GCV (30 μM) for 24 h and 72 h, respectively. To determine the effects of OZ418 on cell cycle progression in infected HFFs, 1.0×10^6 cells were serum starved for 72 h, and then infected with HCMV Towne strain (MOI=1) followed by treatment with OZ418 (30 μM), AS (30 μM), or GCV (5 μM) for 24 h and 72 h, respectively. The cells were collected by treatment with trypsin and then washed with PBS. The collected cells were fixed in 5 ml of cold 70% ethanol overnight at 4° C. and resuspended in […] of staining buffer (50 μg/ml propidium iodide [Sigma-Aldrich] and 0.2 mg/ml RNase A in PBS) for 45 min at 37° C. in 5% CO2. The samples were analyzed on an LSR II flow cytometer (BD Biosciences, San Jose, Calif.), and at least 10,000 cells were counted for each sample. Data analysis was performed using FlowJo software (Tree Star, USA). The percentage of cells in G1/S/G2-M is shown in each condition.

HCMV-infected HFFs = experiment: Cell cycle progression by flow cytometry, HCMV-infected HFFs; format: cell-based, human; conditions: HCMV-infected cells, 30 μM, 24 h and 72 h
Experimental: as §4

[4] = test system: CDK 1, 2, 4, pRb and E2F1 expression; experiment: Immunoblot of CDKs, pRb and E2F1, HCMV-infected HFFs; format: cell-based, human
Experimental: (§5) Cell lysates were quantified for total protein content using Pierce bicinchoninic acid (BCA) protein assay kit (Thermo-Fisher Scientific, Waltham, Mass.). Equivalent amounts of protein were mixed with an equal volume of sample buffer (125 mM Tris-HCl [pH 6.8], 4% SDS 20% glycerol, 5% β-mercaptoethanol) and boiled at 100° C. for 10 min. Denatured proteins were resolved in Tris-glycine polyacrylamide gels (10% to 12%) and transferred to polyvinylidene difluoride membranes (Bio-Rad Laboratories, Hercules, Calif.) by electroblotting. Membranes were incubated in blocking solution (5% nonfat dry milk/BSA and 0.1% Tween 20 in PBS [PBST]) for 1 h, washed three times with PBST, and incubated primary antibodies diluted in 5% milk or BSA (for pRb) at 4° C. overnight. The membranes were washed with PBST, followed by incubation with horseradish peroxidase (HRP)-conjugated secondary antibodies in 5% milk/BSA for 1 h at room temperature. After three washing steps with PBST, protein bands were visualized by chemiluminescence using SuperSignal West Pico reagent (Pierce Chemical, Rockford, Ill.). […]

[5] = test system: CDKs, pRB and E2F1 expression; experiment: Immunoblot of CDKs, pRb and E2F1, non-infected HFFs; format: cell-based, human
Experimental: as §5

[6] = test system: HCMV in high density and low density HFFs; experiment: Effect of cell density on anti-HCMV activity (pp28 luciferase); format: cell-based, human cytomegalovirus
Experimental: as §3

[7] = test system: pp28 luciferase-recombinant Towne HCMV; conditions: in the presence of viral DNA polymerase inhibitors; previously described; cited from earlier work
non-infected HFFs [8] = conditions: literature report; cited from earlier work
[9] = test system: HCMV in high density and low density HFFs; conditions: Roy S., 2015; cited from earlier work

For `c1cc([C@H]2CC[C@]3(CC2)OO[C@]2(O3)C3CC4CC(C3)CC2C4)ccc1OCCN1CCOCC1` [OZ439, artefenomel], the EC50 [1] was 13.2 ± 1.27 µM.
For `O=C(O)COc1ccc([C@H]2CC[C@]3(CC2)OO[C@]2(O3)C3CC4CC(C3)CC2C4)cc1` [OZ418], the “Selectivity index (SI)” value [1] was 13.06 ± 0.48, the EC50 [1] was 9.8 ± 0.25 µM and the CC50 at 3 days (MTT cell viability assay) was 128 ± 8 µM. The EC50 (HCMV TB40 strain) was 8.53 ± 0.09 µM, the “Inhibition of GCV-resistant strain” value (GCV-resistant CMV strain) was “inhibited” and the “Inhibition of HCMV entry” value (HCMV entry) was “did not inhibit HCMV entry”. For the same compound, the “Timing of anti-HCMV activity” value (pp28-luciferase HCMV) was “early-late inhibitor of HCMV”, the “Combination effect with GCV against HCMV” value [2] was “synergistic activity with GCV” and the “MCMV inhibition compared to AS” value (MCMV; OZ418 once daily vs AS orally twice daily, FIG. 5 D-F) was “more effective in MCMV inhibition”. For the same compound, the “MCMV replication in organs” value (MCMV; salivary gland, liver and spleen, day 14 after infection, OZ418 1, 3 or 10 mg/kg orally once daily) was “effectively inhibits mouse CMV replication; also recorded: dose response was observed”, the Cell cycle progression (non-infected HFFs [3]) was “did not influence cell cycle progression” and the Cell cycle progression (HCMV-infected HFFs) was “delayed cell cycle progression”. The “Expression level of CDKs, pRb and E2F1” value [4] was “reduced”, the “Expression of CDKs, pRB and E2F1” value [5] was “unchanged; also recorded: did not decrease the expression of pRb or any of the tested CDKs” and the “HCMV inhibition in high-density HFFs” value ([6]; high-density HFFs, FIG. 8A) was “effectively inhibited HCMV”. For the same compound, the “Cell-density dependence of anti-HCMV activity” value ([6]; low density and high density human fibroblast cells) was “cell-density dependent” and the “Activity against HCMV in low-density HFFs” value ([6]; low-density HFFs, FIG. 8A) was “significantly reduced”.
For `OC1CCN(CCOc2ccc([C@H]3CC[C@]4(CC3)OO[C@]3(O4)C4CC5CC(C4)CC3C5)cc2)CC1` [OZ513b], the “Selectivity index (SI)” value [1] was 3.14 ± 0.20, the EC50 [1] was 15.7 ± 0.87 µM and the CC50 at 3 days (MTT cell viability assay) was 49.4 ± 3.67 µM.
In the case of `O=C(O)C1CCN(CCOc2ccc([C@H]3CC[C@]4(CC3)OO[C@]3(O4)C4CC5CC(C4)CC3C5)cc2)CC1` [OZ721], the “Selectivity index (SI)” value [1] is reported as 7.89 ± 0.35, the EC50 [1] is reported as 5.75 ± 0.74 µM and the CC50 at 3 days (MTT cell viability assay) is reported as 45.5 ± 6.82 µM.
For `CC(C)(N)CNC(=O)C[C@H]1CC[C@]2(CC1)OO[C@]1(O2)C2CC3CC(C2)CC1C3` [OZ277, arterolane, reference compound], the “Selectivity index (SI)” value [1] was 1.98 ± 0.09, the EC50 [1] was 17.1 ± 1.31 µM and the CC50 at 3 days (MTT cell viability assay) was 33.7 ± 1 µM.
In the case of `O=C(O)P(=O)(O)O` [foscarnet], the “Luciferase expression from UL99 (pp28) late promoter” value [7] is given as “almost completely inhibited”.
In the case of `C[C@H]1[C@H](OC(=O)CCC(=O)O)O[C@@H]2O[C@@]3(C)CC[C@H]4[C@H](C)CC[C@@H]1[C@@]24OO3` [AS, Artesunate, reference compound], the “Timing of anti-HCMV activity” value (pp28-luciferase HCMV) is given as “lost anti-HCMV activity when added after 24 h post infection”, the “Combination effect with GCV against HCMV” value [2] is given as “synergistic activity with GCV” and the “Cell cycle effect (reported)” value (non-infected HFFs [8]) is given as “arrest cell cycle in early G1”. For the same compound, the “Cell-density dependence of anti-HCMV activity (reported)” value [9] was “cell-density dependent”.
In the case of `Nc1nc(O)c2ncn(COC(CO)CO)c2n1` [GCV, ganciclovir, reference compound], the “Expression level of CDKs, pRb and E2F1” value [4] is listed as “did not exhibit any effects on pRb/CDKs expression” and the “Luciferase expression from UL99 (pp28) late promoter” value [7] is listed as “almost completely inhibited”.
